# System: Ba/F3 EGFR del19/T790M/C797S cells
# Assay: Ba/F3 EGFR del19/T790M/C797S cell growth inhibition test (CellTiter-Glo, 72 hours);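 further: compounds tested in tenfold steps from 10 µM down to 0.1 nM, with luminescence read on a microplate reader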
# Format: cell-based
# Details: Ba/F3 cell line overexpressing EGFR del19/T790M/C797S, 72 hours, CellTiter-Glo; read-out: Ba/F3 EGFR del19/T790M/C797S cells, GI50
# Protocol: Specifically, the cell line stored in a liquid nitrogen tank was taken out, rapidly dissolved at 37° C., and thereafter centrifuged to remove the cryopreservation medium. The recovered cell pellets were well mixed in a culture medium, put into a culture flask, and passaged under conditions of 37° C. and 5% carbon dioxide to stabilize the cells to the logarithmic growth phase. Thereafter, cells were taken from the flask, centrifuged to remove the culture medium, washed with Dulbecco's phosphate buffered saline (DPBS), and then centrifuged again to remove DPBS, and then diluted with a culture medium to have 1×10^5 cells/ml. The diluted cells were dispensed into a 96-well plate at 100 μl per well. […] The DMSO solution containing each compound was diluted with a culture medium to a concentration of 30 μM, and then tenfold serial dilution was used to prepare a solution diluted upto 0.3 nM (in order to reach a final DMSO concentration of 1% or less).
# 50 μl of a test solution of each compound was added each time to the 96-well plate in which the cells were dispensed, thus reaching a final concentration of 10 μM to 0.1 nM in 150 μl per well. The cells treated with the test solution were cultured under conditions of 37° C. and 5% carbon dioxide for 72 hours. After the 96-well plate in which the cells were cultured was acclimated to room temperature for 30 minutes, CellTiter-Glo® Luminescent Cell Assay Reagent (CTG, Promega) was dispensed at 50 μl per well. After stabilizing luminescence signals for 10 minutes, the luminescence intensity was measured with a microplate reader.
# The GI50 value of each compound was calculated using nonlinear regression of GraphPad Prism; log[inhibitor] vs. normalized response analysis.
row,Structure (SMILES),GI50
1,"Cc1cc(N2CCN(C)CC2)ccc1Nc1nc(Nc2ccccc2N(C)S(C)(=O)=O)c2cc[nH]c2n1 [Example 2, N-methyl-N-(2-((2-((2-methyl-4-(4-methylpiperazin-1-yl)phenyl)amino)-7H-pyrrolo[2,3-d]pyrimidine-4-yl)amino)phenyl)methanesulfonamide]",522 nM
2,"CN1CCN(c2ccc(Nc3nc(Nc4ccccc4N(C)S(C)(=O)=O)c4cc[nH]c4n3)c(F)c2)CC1 [Example 3, N-(2-((2-((2-fluoro-4-(4-methylpiperazin-1-yl)phenyl)amino)-7H-pyrrolo[2,3-d]pyrimidine-4-yl)amino)phenyl)-N-methylmethanesulfonamide]",157 nM
3,"CN1CCN(c2ccc(Nc3nc(Nc4ccccc4N(C)S(C)(=O)=O)c4cc[nH]c4n3)cc2O)CC1 [Example 4, N-(2-((2-((3-hydroxy-4-(4-methylpiperazin-1-yl)phenyl)amino)-7H-pyrrolo[2,3-d]pyrimidine-4-yl)amino)phenyl)-N-methylmethanesulfonamide]",453 nM
4,"Cc1cc(Nc2nc(Nc3ccccc3N(C)S(C)(=O)=O)c3cc[nH]c3n2)ccc1N1CCN(C)CC1 [Example 5, N-methyl-N-(2-((2-((3-methyl-4-(4-methylpiperazin-1-yl)phenyl)amino)-7H-pyrrolo[2,3-d]pyrimidine-4-yl)amino)phenyl)methanesulfonamide]",31 nM
5,"CN1CCN(c2ccc(Nc3nc(Nc4ccccc4N(C)S(C)(=O)=O)c4cc[nH]c4n3)cc2Cl)CC1 [Example 6, N-(2-((2-((3-chloro-4-(4-methylpiperazin-1-yl)phenyl)amino)-7H-pyrrolo[2,3-d]pyrimidine-4-yl)amino)phenyl)-N-methylmethanesulfonamide]",54 nM
6,"CN1CCN(c2ccc(Nc3nc(Nc4ccccc4N(C)S(C)(=O)=O)c4cc[nH]c4n3)cc2F)CC1 [Example 7, N-(2-((2-((3-fluoro-4-(4-methylpiperazin-1-yl)phenyl)amino)-7H-pyrrolo[2,3-d]pyrimidine-4-yl)amino)phenyl)-N-methylmethanesulfonamide]",19 nM
7,"CN(c1ccccc1Nc1nc(Nc2ccc(N3CCC(N4CCOCC4)CC3)c(F)c2)nc2[nH]ccc12)S(C)(=O)=O [Example 18, N-(2-((2-((3-fluoro-4-(4-morpholinopiperidin-1-yl)phenyl)amino)-7H-pyrrolo[2,3-d]pyrimidine-4-yl)amino)phenyl)-N-methylmethanesulfonamide]",73 nM
8,CN(c1ccccc1Nc1nc(Nc2ccc(N3CCN(C4COC4)CC3)c(F)c2)nc2[nH]ccc12)S(C)(=O)=O [Example 19],112 nM
9,"CN1CCC(c2ccc(Nc3nc(Nc4ccccc4N(C)S(C)(=O)=O)c4cc[nH]c4n3)cc2F)CC1 [Example 20, N-(2-((2-((3-fluoro-4-(1-methylpiperidin-4-yl)phenyl)amino)-7H-pyrrolo[2,3-d]pyrimidine-4-yl)amino)phenyl)-N-methylmethanesulfonamide]",37 nM
10,"CN(c1ccccc1Nc1nc(Nc2ccc(N3CCCCC3)c(F)c2)nc2[nH]ccc12)S(C)(=O)=O [Example 22, N-(2-((2-((4-(piperidin-1-yl)-3-fluorophenyl)amino)-7H-pyrrolo[2,3-d]pyrimidine-4-yl)amino)phenyl)-N-methylmethanesulfonamide]",371 nM
11,"CN(c1ccccc1Nc1nc(Nc2ccc(N3CCNCC3)c(F)c2)nc2[nH]ccc12)S(C)(=O)=O [Example 23, N-(2-((2-((3-fluoro-4-(piperazin-1-yl)phenyl)amino)-7H-pyrrolo[2,3-d]pyrimidine-4-yl)amino)phenyl)-N-methylmethanesulfonamide]",76 nM
12,"CN1CCC(Nc2ccc(Nc3nc(Nc4ccccc4N(C)S(C)(=O)=O)c4cc[nH]c4n3)cc2F)CC1 [Example 24, N-(2-((2-((3-fluoro-4-((1-methylpiperidin-4-yl)amino)phenyl)amino)-7H-pyrrolo[2,3-d]pyrimidine-4-yl)amino)phenyl)-N-methylmethanesulfonamide]",47 nM
13,"CN1CCN(c2c(F)cc(Nc3nc(Nc4ccccc4N(C)S(C)(=O)=O)c4cc[nH]c4n3)cc2F)CC1 [Example 25, N-(2-((2-((3,5-difluoro-4-(4-methylpiperazin-1-yl)phenyl)amino)-7H-pyrrolo[2,3-d]pyrimidine-4-yl)amino)phenyl)-N-methylmethanesulfonamide]",22 nM
14,"CN1CCN(c2ccc(Nc3nc(Nc4ccccc4N(C)S(C)(=O)=O)c4cc[nH]c4n3)nc2)CC1 [Example 29, N-methyl-N-(2-((2-((5-(4-methylpiperazin-1-yl)pyridin-2-yl)amino)-7H-pyrrolo[2,3-d]pyrimidine-4-yl)amino)phenyl)methanesulfonamide]",626 nM
15,"CN1CCC2(CCN(c3ccc(Nc4nc(Nc5ccccc5N(C)S(C)(=O)=O)c5cc[nH]c5n4)cc3F)CC2)C1 [Example 33, N-(2-((2-((3-fluoro-4-(2-methyl-2,8-diazaspiro[4.5]decan-8-yl)phenyl)amino)-7H-pyrrolo[2,3-d]pyrimidine-4-yl)amino)phenyl)-N-methylmethanesulfonamide]",31 nM
16,"CN1CCC2(CC1)CCN(c1ccc(Nc3nc(Nc4ccccc4N(C)S(C)(=O)=O)c4cc[nH]c4n3)cc1F)C2 [Example 35, N-(2-((2-((3-fluoro-4-(8-methyl-2,8-diazaspiro[4.5]decan-2-yl)phenyl)amino)-7H-pyrrolo[2,3-d]pyrimidine-4-yl)amino)phenyl)-N-methylmethanesulfonamide]",185 nM
17,"CN1CCC2(CC1)CN(c1ccc(Nc3nc(Nc4ccccc4N(C)S(C)(=O)=O)c4cc[nH]c4n3)cc1F)C2 [Example 37, N-(2-((2-((3-fluoro-4-(7-methyl-2,7-diazaspiro[3.5]nonan-2-yl)phenyl)amino)-7H-pyrrolo[2,3-d]pyrimidine-4-yl)amino)phenyl)-N-methylmethanesulfonamide]",95 nM
18,"CN1CCC2(C1)CN(c1ccc(Nc3nc(Nc4ccccc4N(C)S(C)(=O)=O)c4cc[nH]c4n3)cc1F)C2 [Example 38, N-(2-((2-((3-fluoro-4-(6-methyl-2,6-diazaspiro[3.4]octan-2-yl)phenyl)amino)-7H-pyrrolo[2,3-d]pyrimidine-4-yl)amino)phenyl)-N-methylmethanesulfonamide]",25 nM
19,"CN(c1ccccc1Nc1nc(Nc2ccc(N3CCC4(CCOCC4)CC3)c(F)c2)nc2[nH]ccc12)S(C)(=O)=O [Example 39, N-(2-((2-((3-fluoro-4-(3-oxa-9-diazaspiro[5.5]undecan-9-yl)phenyl)amino)-7H-pyrrolo[2,3-d]pyrimidine-4-yl)amino)phenyl)-N-methylmethanesulfonamide]",67 nM
20,"CN(c1ccccc1Nc1nc(Nc2ccc(N3CCC4(CC3)COC4)c(F)c2)nc2[nH]ccc12)S(C)(=O)=O [Example 40, N-(2-((2-((3-fluoro-4-(2-oxa-7-azaspiro[3.5]nonan-7-yl)phenyl)amino)-7H-pyrrolo[2,3-d]pyrimidine-4-yl)amino)phenyl)-N-methylmethanesulfonamide]",65 nM

# Stronger by GI50, values ahead:
row,GI50,Structure (SMILES)
1,17 nM,"CN(C)C1CCN(c2ccc(Nc3nc(Nc4ccccc4N(C)S(C)(=O)=O)c4cc[nH]c4n3)cc2F)CC1 [Example 21, N-(2-((2-((4-(4-(dimethylamino)piperidin-1-yl)-3-fluorophenyl)amino)-7H-pyrrolo[2,3-d]pyrimidine-4-yl)amino)phenyl)-N-methylmethanesulfonamide]"
2,11 nM,"CCN1CCC2(CC1)CCN(c1ccc(Nc3nc(Nc4ccccc4N(C)S(C)(=O)=O)c4cc[nH]c4n3)cc1F)CC2 [Example 32, N-(2-((2-((4-(9-ethyl-3,9-diazaspiro[5.5]undecan-3-yl)-3-fluorophenyl)amino)-7H-pyrrolo[2,3-d]pyrimidine-4-yl)amino)phenyl)-N-methanesulfonamide]"
3,10 nM,"CN1CCC2(CC1)CCN(c1ccc(Nc3nc(Nc4ccccc4N(C)S(C)(=O)=O)c4cc[nH]c4n3)cc1F)CC2 [Example 31, N-(2-((2-((3-fluoro-4-(9-methyl-3,9-diazaspiro[5.5]undecan-3-yl)phenyl)amino)-7H-pyrrolo[2,3-d]pyrimidine-4-yl)amino)phenyl)-N-methylmethanesulfonamide]"
4,9.4 nM,"CN1CCN(c2ccc(Nc3nc(Nc4ccccc4N(C)S(C)(=O)=O)c4cc[nH]c4n3)cn2)CC1 [Example 30, N-methyl-N-(2-((2-((6-(4-methylpiperazin-1-yl)pyridin-3-yl)amino)-7H-pyrrolo[2,3-d]pyrimidine-4-yl)amino)phenyl)methanesulfonamide]"
5,7 nM,"CN(c1ccccc1Nc1nc(Nc2ccc(N3CCN(CCO)CC3)c(F)c2F)nc2[nH]ccc12)S(C)(=O)=O [Example 28, N-(2-((2-((2,3-difluoro-4-(4-(2-hydroxyethyl)piperazin-1-yl)phenyl)amino)-7H-pyrrolo[2,3-d]pyrimidine-4-yl)amino)phenyl)-N-methylmethanesulfonamide]"
6,6 nM,"CN1CCN(c2ccc(Nc3nc(Nc4ccccc4N(C)S(C)(=O)=O)c4cc[nH]c4n3)c(F)c2F)CC1 [Example 27, N-(2-((2-((2,3-difluoro-4-(4-methylpiperazin-1-yl)phenyl)amino)-7H-pyrrolo[2,3-d]pyrimidine-4-yl)amino)phenyl)-N-methylmethanesulfonamide]"
7,6 nM,"CN1CC2(CCN(c3ccc(Nc4nc(Nc5ccccc5N(C)S(C)(=O)=O)c5cc[nH]c5n4)cc3F)CC2)C1 [Example 34, N-(2-((2-((3-fluoro-4-(2-methyl-2,7-diazaspiro[3.5]nonan-7-yl)phenyl)amino)-7H-pyrrolo[2,3-d]pyrimidine-4-yl)amino)phenyl)-N-methylmethanesulfonamide]"
8,4.2 nM,"CN(c1ccccc1Nc1nc(Nc2ccc(N3CCOCC3)c(F)c2)nc2[nH]ccc12)S(C)(=O)=O [Example 12, N-(2-((2-((3-fluoro-4-morpholinophenyl)amino)-7H-pyrrolo[2,3-d]pyrimidine-4-yl)amino)phenyl)-N-methylmethanesulfonamide]"
9,3.1 nM,"CN1CCN(c2ccc(Nc3nc(Nc4ccccc4N(C)S(C)(=O)=O)c4cc[nH]c4n3)cc2)CC1 [Example 1, N-methyl-N-(2-((2-((4-(4-methylpiperazin-1-yl)phenyl)amino)-7H-pyrrolo[2,3-d]pyrimidine-4-yl)amino)phenyl)methanesulfonamide]"

# From patent US12319695B2, “Sulfonamide derivative with fused pyrimidine skeleton, having epidermal growth factor receptor mutation inhibitory effect” (HANMI PHARM. CO., LTD., priority 2018, dated 2025)
